According to patent EP4722213A1, “NITROGEN-CONTAINING FUNCTIONAL GROUP-SUBSTITUTED PYRIDAZINOPYRIDONE DERIVATIVE AND USE THEREOF” (Sichuan Huiyu Pharmaceutical Co., Ltd., priority 2023, dated 2024):
Structures can show the parent of a compound that is named as a salt.

Molecular target: T1, SOS1 (Homo sapiens, UniProt Q07889)
T1 sequence (Q07889 1-1333): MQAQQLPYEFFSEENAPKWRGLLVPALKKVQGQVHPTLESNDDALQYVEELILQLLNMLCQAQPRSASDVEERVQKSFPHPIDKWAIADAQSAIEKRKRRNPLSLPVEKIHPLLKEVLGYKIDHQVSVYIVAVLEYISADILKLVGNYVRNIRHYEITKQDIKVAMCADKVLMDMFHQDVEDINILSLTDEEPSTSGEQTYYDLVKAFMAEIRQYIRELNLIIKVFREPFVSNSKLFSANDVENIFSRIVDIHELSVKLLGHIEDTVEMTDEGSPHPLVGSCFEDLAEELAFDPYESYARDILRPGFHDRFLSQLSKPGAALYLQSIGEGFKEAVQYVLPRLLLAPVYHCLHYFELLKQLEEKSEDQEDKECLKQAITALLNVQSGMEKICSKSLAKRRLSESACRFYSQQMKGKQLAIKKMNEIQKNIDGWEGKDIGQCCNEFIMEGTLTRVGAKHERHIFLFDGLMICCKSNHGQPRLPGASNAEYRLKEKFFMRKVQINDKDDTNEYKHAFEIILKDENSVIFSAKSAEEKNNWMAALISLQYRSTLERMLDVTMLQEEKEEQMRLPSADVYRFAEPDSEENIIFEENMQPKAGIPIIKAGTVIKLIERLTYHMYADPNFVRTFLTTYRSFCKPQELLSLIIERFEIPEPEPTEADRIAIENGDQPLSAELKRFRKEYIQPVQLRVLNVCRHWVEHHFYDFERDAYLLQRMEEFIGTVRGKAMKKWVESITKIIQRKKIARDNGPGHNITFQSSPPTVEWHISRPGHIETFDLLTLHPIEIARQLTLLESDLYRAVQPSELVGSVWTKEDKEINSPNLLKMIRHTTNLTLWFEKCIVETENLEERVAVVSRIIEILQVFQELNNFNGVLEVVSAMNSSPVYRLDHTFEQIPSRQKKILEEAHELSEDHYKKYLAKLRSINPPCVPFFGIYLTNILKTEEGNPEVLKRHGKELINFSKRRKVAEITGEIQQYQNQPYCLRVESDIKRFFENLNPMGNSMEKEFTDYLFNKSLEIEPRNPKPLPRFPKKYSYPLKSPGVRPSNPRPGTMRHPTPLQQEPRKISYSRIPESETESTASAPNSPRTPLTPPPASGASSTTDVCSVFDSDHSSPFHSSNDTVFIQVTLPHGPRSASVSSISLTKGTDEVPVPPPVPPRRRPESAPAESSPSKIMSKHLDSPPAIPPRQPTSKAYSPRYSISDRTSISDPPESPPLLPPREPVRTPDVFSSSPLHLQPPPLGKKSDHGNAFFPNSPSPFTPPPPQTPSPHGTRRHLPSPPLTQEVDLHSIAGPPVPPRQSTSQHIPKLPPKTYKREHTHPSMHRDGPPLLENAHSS
Experiment: biochemical

Structure (SMILES)	IC50 [nM]
Cc1c([C@@H](C)Nc2nnc(N3CCN(C4CCC4)CC3)c3cc(=O)n(C4(C)CC4)cc23)cccc1C(F)(F)F [Example 94, (R)-1-(4-cyclobutylpiperazin-1-yl)-4-((1-(2-methyl-3-(trifluoromethyl)phenyl)ethyl)amino)-6-(1-methylcyclopropyl) pyrido[3,4-d]pyridazin-7(6H)-one]	7.3
C[C@@H](Nc1nnc(N2CC3COCC3C2)c2cc(=O)n(C3(C)CC3)cc12)c1cccc(C(F)F)c1F (stereo partly drawn) [Example 205, 4-(((R)-1-(3-(difluoromethyl)-2-fluorophenyl)ethyl)amino)-6-(1-methylcyclopropyl)-1-(tetrahydro-1H-furo[3,4-c]pyrrol-5(3H)-yl)pyrido[3,4-d]pyridazin-7(6H)-one]	4.1
C[C@@H](Nc1nnc(N2CCN(C3CC3)CC2)c2cc(=O)n(C3CC(F)(F)C3)cc12)c1cccc(C(F)F)c1F [Example 103, (R)-6-(3,3-difluorocyclobutyl)-4-((1-(3-(difluoromethyl)-2-fluorophenyl)ethyl)amino)-1-(4-cyclopropylpiperazin-1-yl)pyrido[3,4-d]pyridazin-7(6H)-one]	5.9
Cc1c([C@@H](C)Nc2nnc(N3CCC(F)(F)CC3)c3cc(=O)n(C4(C)CC4)cc23)cccc1C(F)(F)F [Example 65, (R)-1-(4,4-difluoropiperidin-1-yl)-4-((1-(2-methyl-3-(trifluoromethyl)phenyl)ethyl)amino)-6-(1-methylcyclopropyl) pyrido[3,4-d]pyridazin-7(6H)-one]	61
C[C@@H](Nc1nnc(-n2nccn2)c2cc(=O)n(C3CC3)cc12)c1cccc(C(F)F)c1F [Example 32, (R)-6-cyclopropyl-4-((1-(3-(difluoromethyl)-2-fluorophenyl)ethyl)amino)-1-(2H-1,2,3-triazol-2-yl)pyrido[3,4-d]pyridazin-7(6H)-one]	25.5
Cc1c([C@@H](C)Nc2nnc(N3CCC(F)(F)CC3)c3cc(=O)n(C4CC4)cc23)cccc1C(F)(F)F [Example 58, (R)-6-cyclopropyl-1-(4,4-difluoropiperidin-1-yl)-4-((1-(2-methyl-3-(trifluoromethyl)phenyl)ethyl)amino)pyr ido[3,4-d]pyridazin-7(6H)-one]	100
C[C@@H](Nc1nnc(NN2CCOCC2)c2cc(=O)n(C3(C)CC3)cc12)c1cccc(C(F)(F)F)c1 [Example 158, (R)-6-(1-methylcyclopropyl)-1-(morpholinoamino)-4-((1-(3-(trifluoromethyl)phenyl)ethyl)amino)pyr ido[3,4-d]pyridazin-7(6H)-one formate]	6.9
CCn1cc2c(N[C@H](C)c3cccc(C(F)F)c3F)nnc(N3CCN(C)CC3)c2cc1=O [Example 116, (R)-4-((1-(3-(difluoromethyl)-2-fluorophenyl)ethyl)amino)-6-ethyl-1-(4-methylpiperazin-1-yl)pyrido[3,4-d]pyridazin-7(6H)-one]	6.6
C[C@@H](Nc1nnc(N2CCN(C3CC3)CC2)c2cc(=O)n(C3(C)CC3)cc12)c1cccc(C(F)F)c1F [Example 218, (R)-1-(4-cyclopropylpiperazin-1-yl)-4-((1-(3-(difluoromethyl)-2-fluorophenyl)ethyl)amino)-6-(1-methylcyclopropyl) pyrido[3,4-d]pyridazin-7(6H)-one]	6
